From patent EP0373543A2, “Diagnostic media and assay for detecting fungicide resistance” (BASF Corporation, priority 1988, dated 1990)

Test system: Botrytis cinerea
Assay: Spore germination on agar-dextrose medium containing vinclozolin, microscopic examination (Example 1)
Assay type: cell-based
Conditions: 18 hours room temperature
Description: Resistant and sensitive fungi were initially obtained from crops of cultivated fruit in the field. The percent germination reported below was calculated by microscopic evaluation. An average of four fields of view per plate was examined with each field of view having a total of about 100 to 300 spores. The total number of spores in each field of view was counted then either the number germinated or not germinated, whichever was easiest to count, was determined. These numbers were then combined appropriately and the percent germination calculated. Unless otherwise noted, resistant isolates are given a numerical designation and sensitive isolates a letter designation.
Botrytis cinerea of known sensitivity and resistance to vinclozolin were cultured on potato dextrose agar prepared according to manufacturer's directions and Preparation Example 2 for 2 weeks and induced to sporulate under long wave ultraviolet light. Spores were transferred using a sterile cotton tipped swab to a solid medium containing 20 g of agar, 20 g dextrose and the amount of vinclozolin in parts per million per liter of media shown in Table 1 below. The innoculated media was incubated at room temperature for 18 hours and microscopically examined for germination; the results of this assay are set forth below in Table 1 where "BC" means Botrytis cinerea.

Measured: Percent Germination

C=CC1(C)OC(=O)N(c2cc(Cl)cc(Cl)c2)C1=O (stereo not drawn) [vinclozolin]
100%: isolate BC-1 resistant, vinclozolin 2.5 ppm | isolate BC-1 resistant, vinclozolin 5.0 ppm | isolate BC-1 resistant, vinclozolin 10.0 ppm | isolate BC-2 res., vinclozolin 2.5 ppm | isolate BC-2 res., vinclozolin 5.0 ppm | isolate BC-2 res., vinclozolin 10.0 ppm | isolate BC-3 res., vinclozolin 2.5 ppm | isolate BC-4 res., vinclozolin 2.5 ppm | isolate BC-4 res., vinclozolin 5.0 ppm | isolate BC-4 res., vinclozolin 10.0 ppm | isolate BC-5 res., vinclozolin 2.5 ppm | isolate BC-5 res., vinclozolin 5.0 ppm | isolate BC-6 res., vinclozolin 2.5 ppm | isolate BC-6 res., vinclozolin 5.0 ppm | isolate BC-6 res., vinclozolin 10.0 ppm
80%: isolate BC-3 res., vinclozolin 10.0 ppm
90%: isolate BC-3 res., vinclozolin 5.0 ppm | isolate BC-5 res., vinclozolin 10.0 ppm
0%: isolate BC-A sensitive, vinclozolin 2.5 ppm | isolate BC-A sensitive, vinclozolin 5.0 ppm | isolate BC-A sensitive, vinclozolin 10.0 ppm | isolate BC-B sens., vinclozolin 2.5 ppm | isolate BC-B sens., vinclozolin 5.0 ppm | isolate BC-B sens., vinclozolin 10.0 ppm | isolate BC-C sens., vinclozolin 2.5 ppm | isolate BC-C sens., vinclozolin 5.0 ppm | isolate BC-C sens., vinclozolin 10.0 ppm | isolate BC-D sens., vinclozolin 2.5 ppm | isolate BC-D sens., vinclozolin 5.0 ppm | isolate BC-D sens., vinclozolin 10.0 ppm
